Assay results reported in patent US12285407B2, “Bis-indolylmethane derivatives and uses thereof” (The University of The West Indies, priority 2018, dated 2025).
Like-named read-outs stand apart in the source and are kept apart here.

Tests used:
Bacillus cereus = test: Checkerboard synergy (FICI) of antibiotics with SP-BIM; assay type: cell-based
Escherichia coli = test: as above; design: MIC SP-BIM 13 only / MIC in combination: Antibiotic: unit not given beside the values; conditions: for MIC: 24 h
Streptococcus pneumoniae [1] = test: as above; assay type: cell-based; conditions: for MIC: 24 h, antibiotic alone, read-out: MIC antibiotic only
Enterococcus faecium = test: as above; assay type: cell-based; conditions: Enterococcus faecium, Enterococcus faecium; for MIC: 24 h, antibiotic alone, read-out: MIC antibiotic only
Staphylococcus aureus = test: as above; assay type: cell-based; conditions: Staphylococcus aureus, Staphylococcus aureus; for MIC: 24 h, antibiotic alone, read-out: MIC antibiotic only
Klebsiella pneumoniae = test: as above; assay type: cell-based; conditions: for MIC: 24 h, antibiotic alone, read-out: MIC antibiotic only
Candida albicans = test: as above; design: MIC SP-BIM 13 only / MIC in combination: Antibiotic / MIC antibiotic only: unit not given beside the values
[2] = system: Klebsiella pneumoniae ATCC 49472; test: Broth microdilution MIC of SP-BIMs; assay type: cell-based; conditions: ATCC49472, SP-BIM alone, read-out: MIC Klebisella pneumoniae ATCC 49472
[3] = system: Streptococcus pyogenes ATCC 19615; test: Broth microdilution MIC of SP-BIMs; assay type: cell-based; conditions: ATCC19615, SP-BIM alone, read-out: MIC Streptococcus pyogenes ATCC 19615
[4] = system: Salmonella typhimurium ATCC 14028; test: Broth microdilution MIC of SP-BIMs; assay type: cell-based; conditions: Salmonella enterica, read-out: MIC Salmonella tvpkimurium ATCC 14028
Description: Reference microorganisms used in this study included: Bacillus cereus (American Type Culture Collection (ATCC) No. 14579), Streptococcus pyogenes (ATCC No. 19615), Staphylococcus aureus (ATCC No. 12600), Enterococcus faecium (ATCC No. 19434), Corynebacterium diphtheriae (ATCC No. 27010), Escherichia coli (ATCC No. 35218), Salmonella typhimurium (ATCC No. 14028), Pseudomonas aeruginosa (ATCC No. 27853), Klebsiella pneumoniae (ATCC No. 49472), and Candida albicans (ATCC No. 22972).
Prior to each experiment, cultures were streaked onto clean BHI agar plates and incubated at 35° C. for 24 hours. Colonies of the respective cultures were selected and inoculated in phosphate buffer saline (pH 7.5) to a 0.5 McFarland turbidity standard (equivalent to 10^8 CFU mL^−1). The bacterial suspension was then diluted 1:100 in cation adjusted Mueller Hinton Broth (ca-MHB) (Oxoid Ltd, Basingstoke, Hampshire, England).
Stock solutions (50 mg mL^−1) of the SP-BIM test compounds were prepared in DMSO and stored at 4° C. Working preparations of each compound was made up to 1 mg/mL in sterile deionized water with a final DMSO concentration of 10%.
To assess the antibiotic properties of the library of SP-BIMs, the broth microdilution assay was performed in 96-well microplates according to the Clinical and Laboratory Standards Institute 2014 Guidelines (CLSI 2014). The broth microdilution assay was used to determine the minimum inhibitory concentration (MIC). […] Bacterial cells (˜10^6 CFU mL^−1) were inoculated into cation adjusted-Mueller Hinton broth containing the test compound in a twofold serial dilution ranging between 250 μg mL^−1 and 0.02 μg mL^−1. Plates were incubated at 35° C. for 18 hours after which 50 μL of 5% resazurin solution was added to each well. Resazurin is a blue dye which, upon reduction by living cells, turns to a pink resorufin product. Plates were shaken for 1 hour after the addition of the dye. The MIC was recorded as the well with the lowest concentration of test compound where no color change was observed.

[5] = system: Pseudomonas aeruginosa ATCC 27853; test: Broth microdilution MIC of SP-BIMs; assay type: cell-based; conditions: ATCC27853, SP-BIM alone, read-out: MIC Pseudomonas aeruginosa ATCC 27853
[6] = system: Candida albicans ATCC 22972; test: Broth microdilution MIC of SP-BIMs; assay type: cell-based; conditions: ATCC22972, SP-BIM alone, read-out: MIC Candida albicans ATCC 22972
[7] = system: Escherichia coli ATCC 35218; test: Broth microdilution MIC of SP-BIMs; assay type: cell-based; conditions: ATCC35218, SP-BIM alone, read-out: MIC Escherichia coli ATCC 35218
[8] = system: Enterococcus faecium ATCC 19434; test: Broth microdilution MIC of SP-BIMs; assay type: cell-based; conditions: ATCC19434, SP-BIM alone, read-out: MIC Enterococcus faecium ATCC 19434
[9] = system: Staphylococcus aureus ATCC 12600; test: Broth microdilution MIC of SP-BIMs; assay type: cell-based; conditions: ATCC12600, SP-BIM alone, read-out: MIC Staphylococcus aureus ATCC 12600
[10] = system: Bacillus cereus ATCC 14579; test: Broth microdilution MIC of SP-BIMs; assay type: cell-based; conditions: ATCC14579, SP-BIM alone, read-out: MIC Bacillus cereus ATCC 14579
Streptococcus pneumoniae [11] = test: Adjuvant broth microdilution (antibiotic MIC with SP-BIM at 50 μg/mL); assay type: cell-based; conditions: Streptococcus pneumoniae, Streptococcus pneumonia, SP-BIM at 50 μg mL^−1
[12] = system: Corynebacterium diphtheriae ATCC 27010; test: Broth microdilution MIC of SP-BIMs; assay type: cell-based; conditions: ATCC27010, SP-BIM alone, read-out: MIC Corynebacterium diphtheriae ATCC 27010
[13] = SP-BIM 9 in combination with the labelled antibiotic
[14] = SP-BIM 13 in combination with the labelled antibiotic
[15] = antibiotic in combination with SP-BIM 9
[16] = MIC of the antibiotic in combination with SP-BIM 13
[17] = Streptococcus pneumonia (title: Streptococcus pyogenes), antibiotic + SP-BIM 9
[18] = Streptococcus pneumoniae, antibiotic + SP-BIM 13
[19] = antibiotic in combination with SP-BIM 13
[20] = read-out: MIC of Kanamvcin with SP-BIM
[21] = read-out: MIC of Vancomvcin with SP-BIM

## O=C(O)c1cn(C2CC2)c2cc(N3CCNCC3)c(F)cc2c1=O [Ciprofloxacin, ciprofloxacin]
Bacillus cereus; 24 h, antibiotic alone, SP-BIM 9 checkerboard, read-out: MIC antibiotic only
  MIC: 8 µg/mL
Bacillus cereus; SP-BIM 9 concentration in combination with the labelled antibiotic
  MIC in combination, SP-BIM 9: 16 µg/mL
Bacillus cereus; [13]
  FIC of SP-BIM 9: 0.064
Bacillus cereus; [14]
  FIC of SP-BIM 13: 0.0
Bacillus cereus; antibiotic + SP-BIM 9
  Interpretation: Synergy (Synergy: FICI≤0.5)
  Σ FIC: <0.3
Bacillus cereus; antibiotic + SP-BIM 13
  Interpretation: Additive (Additive: FICI>0.5-1.0)
  Σ FIC: 1.0
Bacillus cereus; [15]
  MIC in combination, Antibiotic: 2 µg/mL
Bacillus cereus; in combination with SP-BIM 9
  FIC of antibiotic: 0.25
Bacillus cereus; in combination with SP-BIM 13
  FIC of antibiotic: 1.00
Escherichia coli; read-out: MIC antibiotic only, Escherichia coli, antibiotic alone
  MIC: 2 µg/mL
Escherichia coli; read-out: MIC antibiotic only, Escherichia coli, antibiotic alone, SP-BIM 9 checkerboard
  MIC: 2 µg/mL
Escherichia coli; [16]
  MIC in combination: Antibiotic: 1
Escherichia coli; [13]
  FIC of SP-BIM 9: 0.128
Escherichia coli; [14]
  FIC of SP-BIM 13: 0.1
Escherichia coli; antibiotic + SP-BIM 9
  Interpretation: Synergy (Synergy: FICI≤0.5)
  Σ FIC: <0.4
Escherichia coli; antibiotic + SP-BIM 13
  Interpretation: Additive (Additive: FICI>0.5-1.0)
  Σ FIC: <0.6
Escherichia coli; combination with SP-BIM 13
  FIC of antibiotic: 0.5
Escherichia coli; in combination with SP-BIM 9
  FIC of antibiotic: 0.25
Streptococcus pneumoniae [1]; Streptococcus pneumonia (title: Streptococcus pyogenes), SP-BIM 9 in combination with the labelled antibiotic
  FIC of SP-BIM 9: 0.26
Streptococcus pneumoniae [1]; [17]
  Interpretation: Synergy (Synergy: FICI≤0.5)
  Σ FIC: <0.27
Streptococcus pneumoniae [1]; Streptococcus pneumonia (title: Streptococcus pyogenes), in combination with SP-BIM 9
  FIC of antibiotic: 0.01
Streptococcus pneumoniae [1]; Streptococcus pneumoniae, Streptococcus pneumonia (title: Streptococcus pyogenes), SP-BIM 9 checkerboard
  MIC: 2 µg/mL
Streptococcus pneumoniae [1]; Streptococcus pneumoniae, Streptococcus pneumoniae, SP-BIM 13 checkerboard
  MIC: 2 µg/mL
Streptococcus pneumoniae [1]; Streptococcus pneumoniae, SP-BIM 13 in combination with the labelled antibiotic
  FIC of SP-BIM 13: 0.5
Streptococcus pneumoniae [1]; [18]
  Interpretation: Additive (Additive: FICI>0.5-1.0)
  Σ FIC: <1.0
Streptococcus pneumoniae [1]; Streptococcus pneumoniae, antibiotic in combination with SP-BIM 13
  MIC in combination, Antibiotic: 1 µg/mL
Streptococcus pneumoniae [1]; Streptococcus pneumoniae, in combination with SP-BIM 13
  FIC of antibiotic: 0.5
Enterococcus faecium; SP-BIM 9 checkerboard
  MIC: 8 µg/mL
Enterococcus faecium; SP-BIM 13 checkerboard
  MIC: 8 µg/mL
Enterococcus faecium; [14]
  FIC of SP-BIM 13: 0.5
Enterococcus faecium; antibiotic + SP-BIM 13
  Interpretation: Additive (Additive: FICI>0.5-1.0)
  Σ FIC: 0.6
Enterococcus faecium; [19]
  MIC in combination, Antibiotic: 1 µg/mL
Enterococcus faecium; in combination with SP-BIM 13
  FIC of antibiotic: 0.1
Staphylococcus aureus; SP-BIM 9 checkerboard
  MIC: 1 µg/mL
Staphylococcus aureus; SP-BIM 13 checkerboard
  MIC: 1 µg/mL
Staphylococcus aureus; [13]
  FIC of SP-BIM 9: 0.02
Staphylococcus aureus; [14]
  FIC of SP-BIM 13: 0.5
Staphylococcus aureus; antibiotic + SP-BIM 9
  Interpretation: Synergy (Synergy: FICI≤0.5)
  Σ FIC: <0.52
Staphylococcus aureus; antibiotic + SP-BIM 13
  Interpretation: Additive (Additive: FICI>0.5-1.0)
  Σ FIC: 1.0
Staphylococcus aureus; [15]
  MIC in combination, Antibiotic: 0.5 µg/mL
Staphylococcus aureus; [19]
  MIC in combination, Antibiotic: 0.5 µg/mL
Staphylococcus aureus; in combination with SP-BIM 9
  FIC of antibiotic: 0.50
Staphylococcus aureus; in combination with SP-BIM 13
  FIC of antibiotic: 0.5
Klebsiella pneumoniae; SP-BIM 9 checkerboard
  MIC: 2 µg/mL
Klebsiella pneumoniae; SP-BIM 13 checkerboard
  MIC: 2 µg/mL
Klebsiella pneumoniae; [13]
  FIC of SP-BIM 9: 0.252
Klebsiella pneumoniae; [14]
  FIC of SP-BIM 13: 0.1
Klebsiella pneumoniae; antibiotic + SP-BIM 9
  Interpretation: Synergy (Synergy: FICI≤0.5)
  Σ FIC: <0.5
Klebsiella pneumoniae; antibiotic + SP-BIM 13
  Interpretation: Synergy (Synergy: FICI≤0.5)
  Σ FIC: <0.4
Klebsiella pneumoniae; [15]
  MIC in combination, Antibiotic: 0.5 µg/mL
Klebsiella pneumoniae; [19]
  MIC in combination, Antibiotic: 0.5 µg/mL
Klebsiella pneumoniae; in combination with SP-BIM 9
  FIC of antibiotic: 0.25
Klebsiella pneumoniae; in combination with SP-BIM 13
  FIC of antibiotic: 0.3
Candida albicans; 24 h, read-out: MIC antibiotic only
  MIC: 63 µg/mL
Candida albicans; [16]
  MIC in combination: Antibiotic: 63
Candida albicans; [14]
  FIC of SP-BIM 13: 1.0
Candida albicans; antibiotic + SP-BIM 13
  Interpretation: Indifferent (Indifferent: FICI>1.0-4.0)
  Σ FIC: <2.0
Candida albicans; combination with SP-BIM 13
  FIC of antibiotic: 1.0

## CN(C)c1ccc(C(c2c[nH]c3ccccc23)c2c[nH]c3ccccc23)cc1 [SP-BIM 2, [bis(indoly-3-yl)-4-dimethylaminophenyl]methane]
[2]
  MIC: > 250 µg/mL
[3]
  MIC: > 250 µg/mL
[4]
  MIC: 250 µg/mL
[5]
  MIC: 250 µg/mL
[6]
  MIC: 250 µg/mL
[7]
  MIC: > 250 µg/mL
[8]
  MIC: > 250 µg/mL
[9]
  MIC: > 250 µg/mL
[10]
  MIC: > 250 µg/mL
Streptococcus pneumoniae [11]; [20]
  MIC: 125 µg/mL
Streptococcus pneumoniae [11]; [21]
  MIC: 1 µg/mL
[12]
  MIC: > 250 µg/mL

## CC(C)(C)c1cc(C(c2c[nH]c3ccccc23)c2c[nH]c3ccccc23)c(O)c(C(C)(C)C)c1 [SP-BIM 3, [bis(indol-3-yl)-3,5-di-tert-butyl-2-hydroxyphenyl]methane]
[2]
  MIC: > 250 µg/mL
[3]
  MIC: > 250 µg/mL
[4]
  MIC: 250 µg/mL
[5]
  MIC: 250 µg/mL
[6]
  MIC: 250 µg/mL
[7]
  MIC: > 250 µg/mL
[8]
  MIC: > 250 µg/mL
[9]
  MIC: > 250 µg/mL
[10]
  MIC: > 250 µg/mL
Streptococcus pneumoniae [11]; [20]
  MIC: 125 µg/mL
Streptococcus pneumoniae [11]; [21]
  MIC: 1 µg/mL
[12]
  MIC: > 250 µg/mL

## O=[N+]([O-])c1cccc(C(c2c[nH]c3ccccc23)c2c[nH]c3ccccc23)c1 [SP-BIM 5, [bis(indol-3-yl)-3-nitrophenyl]methane]
[2]
  MIC: > 250 µg/mL
[3]
  MIC: > 250 µg/mL
[4]
  MIC: 250 µg/mL
[5]
  MIC: 250 µg/mL
[6]
  MIC: 250 µg/mL
[7]
  MIC: > 250 µg/mL
[8]
  MIC: > 250 µg/mL
[9]
  MIC: > 250 µg/mL
[10]
  MIC: > 250 µg/mL
Streptococcus pneumoniae [11]; [20]
  MIC: 125 µg/mL
Streptococcus pneumoniae [11]; [21]
  MIC: 1 µg/mL
[12]
  MIC: > 250 µg/mL

## c1cc(C(c2c[nH]c3ccccc23)c2c[nH]c3ccccc23)cc(C(c2c[nH]c3ccccc23)c2c[nH]c3ccccc23)c1 [SP-BIM 7, 1,3-bis[bis(indoly-3-yl)methyl]benzene]
[2]
  MIC: > 250 µg/mL
[3]
  MIC: > 250 µg/mL
[4]
  MIC: 250 µg/mL
[5]
  MIC: 250 µg/mL
[6]
  MIC: 250 µg/mL
[7]
  MIC: > 250 µg/mL
[8]
  MIC: > 250 µg/mL
[9]
  MIC: > 250 µg/mL
[10]
  MIC: > 250 µg/mL
Streptococcus pneumoniae [11]; [20]
  MIC: 125 µg/mL
Streptococcus pneumoniae [11]; [21]
  MIC: 1 µg/mL
[12]
  MIC: > 250 µg/mL
